In PubChem BioAssay AID330 (DTP/NCI, 2004):
“And” between values parts separate entries of the source, which are not always exact repeats. Equal entries are not always repeated. Toxic doses and inconclusive results are not listed. The calls were made as follows: active = survival T/C of 150% or more; inactive = T/C below 125% in these data.

Tested on: P388 leukemia ip, CD2F1 mice, survival T/C
Assay: NCI In Vivo Anticancer Drug Screen. Data for tumor model P388 Leukemia (intraperitoneal) in CD2F1 (CDF1) mice
Settings: endpoint: median survival time, higher = longer survival
Procedure, shortened: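 Mice carrying the transplanted tumor received test compound or vehicle. Survival was recorded in each group, and the value is the treated-group measurement divided by that of the vehicle-treated control group.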

[1] = dose: 100.0 mg/kg/injection, schedule: Q01DX001 (ip), vehicle: Klucel (hydroxypropylcellulose) (HPC)
[2] = dose: 200.0 mg/kg/injection, schedule: Q01DX001 (ip), vehicle: Klucel (hydroxypropylcellulose) (HPC)
[3] = dose: 400.0 mg/kg/injection, schedule: Q01DX001 (ip), vehicle: Klucel (hydroxypropylcellulose) (HPC)
[4] = dose: 50.0 mg/kg/injection, schedule: Q01DX009 (ip), vehicle: Klucel (hydroxypropylcellulose) (HPC)
[5] = dose: 100.0 mg/kg/injection, schedule: Q01DX009 (ip), vehicle: Klucel (hydroxypropylcellulose) (HPC)
[6] = dose: 200.0 mg/kg/injection, schedule: Q01DX009 (ip), vehicle: Klucel (hydroxypropylcellulose) (HPC)
[7] = dose: 50.0 mg/kg/injection, schedule: Q01DX009 (ip), vehicle: saline with Tween-80
[8] = dose: 200.0 mg/kg/injection, schedule: Q01DX009 (ip), vehicle: saline with Tween-80
[9] = dose: 50.0 mg/kg/injection, schedule: Q01DX009 (ip), vehicle: saline
[10] = dose: 100.0 mg/kg/injection, schedule: Q01DX009 (ip), vehicle: saline
[11] = dose: 200.0 mg/kg/injection, schedule: Q01DX009 (ip), vehicle: saline
[12] = dose: 50.0 mg/kg/injection, schedule: Q01DX005 (ip), vehicle: saline with Tween-80
[13] = dose: 100.0 mg/kg/injection, schedule: Q01DX005 (ip), vehicle: saline with Tween-80
[14] = dose: 200.0 mg/kg/injection, schedule: Q01DX005 (ip), vehicle: saline with Tween-80
[15] = dose: 60.0 mg/kg/injection, schedule: Q01DX005 (ip), vehicle: saline with Tween-80
[16] = dose: 120.0 mg/kg/injection, schedule: Q01DX005 (ip), vehicle: saline with Tween-80
[17] = dose: 240.0 mg/kg/injection, schedule: Q01DX005 (ip), vehicle: saline with Tween-80
[18] = dose: 60.0 mg/kg/injection, schedule: Q01DX005 (ip), vehicle: Klucel (hydroxypropylcellulose) (HPC)
[19] = dose: 120.0 mg/kg/injection, schedule: Q01DX005 (ip), vehicle: Klucel (hydroxypropylcellulose) (HPC)

Measured: T/C

COc1cccc(OC(=O)c2ccc(OC)c(C3=CC(=O)C=CC3=O)c2)c1
inactive: [1] 94 % of control | [2] 93 % of control | [3] 89 % of control

O=C(/C=C/c1ccc(O)cc1)NCCc1c[nH]c2ccc(O)cc12
inactive: dose: 25.0 mg/kg/injection, schedule: Q01DX005 (ip), vehicle: Klucel + Tween-80 106 % of control | dose: 50.0 mg/kg/injection, schedule: Q01DX005 (ip), vehicle: Klucel + Tween-80 97 % of control | dose: 100.0 mg/kg/injection, schedule: Q01DX005 (ip), vehicle: Klucel + Tween-80 92 % of control | dose: 200.0 mg/kg/injection, schedule: Q01DX005 (ip), vehicle: Klucel + Tween-80 95 % of control

CC1CCOn2c1nc1ccccc1c2=O (configuration not stated)
inactive: [4] 97 % of control | [5] 102 % of control | [6] 113 % of control

C[CH2][Sn]([CH2]C)([S]CCS(=O)(=O)O)[S]CCS(=O)(=O)O
inactive: dose: 0.93 mg/kg/injection, schedule: Q01DX005 (ip), vehicle: saline 95 % of control | dose: 1.87 mg/kg/injection, schedule: Q01DX005 (ip), vehicle: saline 95 % of control

CCOC(=O)c1ccc(NC(=O)Nc2nn[nH]n2)cc1
inactive: dose: 25.0 mg/kg/injection, schedule: Q01DX009 (ip), vehicle: distilled water + Tween-80 105 % of control | dose: 50.0 mg/kg/injection, schedule: Q01DX009 (ip), vehicle: distilled water + Tween-80 115 % of control | dose: 100.0 mg/kg/injection, schedule: Q01DX009 (ip), vehicle: distilled water + Tween-80 108 % of control | dose: 200.0 mg/kg/injection, schedule: Q01DX009 (ip), vehicle: distilled water + Tween-80 100 % of control | dose: 400.0 mg/kg/injection, schedule: Q01DX009 (ip), vehicle: distilled water + Tween-80 108 % of control

Cc1ccc(S(=O)(=O)NC(=O)NC(C)Cc2ccccc2)cc1 (configuration not stated)
inactive: dose: 12.5 mg/kg/injection, schedule: Q01DX009 (ip), vehicle: saline with Tween-80 102 % of control | dose: 25.0 mg/kg/injection, schedule: Q01DX009 (ip), vehicle: saline with Tween-80 100 % of control | [7] 101 % of control and 105 % of control | [8] 98 % of control

CCCCOC(=O)Nc1ccc(C)c(NC(=O)OCCCC)c1
inactive: [9] 100 % of control | [10] 102 % of control | [11] 100 % of control

OC(C[n+]1ccccc1)c1ccc2c(c1)OCO2 (configuration not stated)
inactive: [12] 106 % of control | [13] 97 % of control

COc1ccc(CSC(=S)Nc2ccc(C)c(Br)c2)cc1
inactive: [9] 100 % of control | [10] 97 % of control | dose: 100.0 mg/kg/injection, schedule: Q01DX009 (ip), vehicle: suspension in saline 91 % of control | [11] 106 % of control | dose: 200.0 mg/kg/injection, schedule: Q01DX009 (ip), vehicle: suspension in saline 104 % of control

CCC(=O)NC1c2ccccc2Oc2ccccc21
inactive: [12] 100 % of control | [13] 100 % of control | [14] 98 % of control

CC(=O)Nc1ccc(S(=O)(=O)N/N=C/c2cc([N+](=O)[O-])cc([N+](=O)[O-])c2O)cc1
inactive: [15] 106 % of control | [16] 104 % of control | [17] 104 % of control

CCN(CC)c1cc(=O)n2ccccc2n1
inactive: [18] 96 % of control | [19] 100 % of control | dose: 240.0 mg/kg/injection, schedule: Q01DX005 (ip), vehicle: Klucel (hydroxypropylcellulose) (HPC) 103 % of control

COC(=O)CC1C=CC(OC)[C@@]2(C)C(=O)C=C(C)C(=O)[C@@H]12 (some centres not stated)
inactive: [15] 110 % of control | [16] 106 % of control | [17] 106 % of control

O/N=C/c1c(-c2ccccc2)nc2sccn12
inactive: [1] 94 % of control | [2] 86 % of control | [3] 94 % of control

CC(C)C[C@H]1C(=O)N2CCC[C@H]2[C@]2(O)O[C@](NC(=O)[C@@H]3C=C4c5cccc6[nH]c(Br)c(c56)C[C@H]4N(C)C3)(C(C)C)C(=O)N12
inactive: [7] 100 % of control | dose: 100.0 mg/kg/injection, schedule: Q01DX009 (ip), vehicle: saline with Tween-80 100 % of control | [8] 100 % of control

COc1ccc(C(CC(=O)NCCCl)CC(=O)NCCCl)cc1
inactive: dose: 100.0 mg/kg/injection, schedule: Q01DX001 (ip), vehicle: suspension in saline 101 % of control | dose: 200.0 mg/kg/injection, schedule: Q01DX001 (ip), vehicle: suspension in saline 100 % of control

Nc1ccc2nc(-c3ccccc3)c(=O)oc2c1
inactive: [15] 97 % of control | [16] 98 % of control

CC1(C)N=C(N)N=C(N)N1c1cccc(CC(=O)Nc2ccccc2)c1
inactive: dose: 12.5 mg/kg/injection, schedule: Q01DX009 (ip), vehicle: saline sonified 95 % of control | dose: 12.5 mg/kg/injection, schedule: Q04DX003 (ip), vehicle: saline with Tween-80 109 % of control | dose: 25.0 mg/kg/injection, schedule: Q01DX009 (ip), vehicle: saline sonified 95 % of control | dose: 25.0 mg/kg/injection, schedule: Q04DX003 (ip), vehicle: saline with Tween-80 104 % of control | dose: 50.0 mg/kg/injection, schedule: Q01DX009 (ip), vehicle: saline sonified 90 % of control | dose: 50.0 mg/kg/injection, schedule: Q04DX003 (ip), vehicle: saline with Tween-80 109 % of control

C[C@@]1(N=Cc2ccccc2)C(=O)NC(=O)C2=CN(Cc3ccccc3)C=C[C@@H]21
inactive: dose: 50.0 mg/kg/injection, schedule: Q01DX005 (ip), vehicle: Klucel (hydroxypropylcellulose) (HPC) 102 % of control | dose: 100.0 mg/kg/injection, schedule: Q01DX005 (ip), vehicle: Klucel (hydroxypropylcellulose) (HPC) 99 % of control | dose: 200.0 mg/kg/injection, schedule: Q01DX005 (ip), vehicle: Klucel (hydroxypropylcellulose) (HPC) 89 % of control

CC1OC(O[C@H]2/C=C/C=C/C=C/C=C/C=C/C=C/C=C/[C@H](C)[C@@H](O)[C@@H](C)[C@H](C)OC(=O)C[C@H](O)C[C@H](O)CC[C@@H](O)[C@H](O)C[C@H](O)C[C@]3(O)C[C@H](O)[C@@H](C(=O)O)[C@H](C2)O3)C(O)C(N)C1O (some centres not stated)
inactive: dose: 1.0 mg/kg/injection, schedule: Q01DX009 (ip), vehicle: saline 90 % of control and 95 % of control | dose: 2.0 mg/kg/injection, schedule: Q01DX009 (ip), vehicle: saline 119 % of control and 90 % of control | dose: 4.0 mg/kg/injection, schedule: Q01DX009 (ip), vehicle: saline 98 % of control and 102 % of control and 105 % of control | dose: 8.0 mg/kg/injection, schedule: Q01DX009 (ip), vehicle: saline 100 % of control and 106 % of control and 87 % of control | dose: 16.0 mg/kg/injection, schedule: Q01DX009 (ip), vehicle: saline 122 % of control and 94 % of control

C=C(C)c1nc(N(C)C)nc(N(C)C)n1
inactive: dose: 30.0 mg/kg/injection, schedule: Q01DX005 (ip), vehicle: Klucel (hydroxypropylcellulose) (HPC) 98 % of control | [18] 88 % of control and 95 % of control | [19] 88 % of control

CC(C)(S)C(N)C(=O)O (configuration not stated)
inactive: [4] 98 % of control | [5] 105 % of control | [6] 94 % of control

CC[N+](CC)=c1cc2oc3cc(N(C)C)ccc3nc-2cc1C
inactive: dose: 6.25 mg/kg/injection, schedule: Q01DX005 (ip), vehicle: saline with Tween-80 99 % of control and 107 % of control | dose: 6.25 mg/kg/injection, schedule: Q01DX005 (ip), vehicle: saline 107 % of control | dose: 12.5 mg/kg/injection, schedule: Q01DX005 (ip), vehicle: saline with Tween-80 106 % of control and 110 % of control | dose: 12.5 mg/kg/injection, schedule: Q01DX005 (ip), vehicle: saline 112 % of control | dose: 25.0 mg/kg/injection, schedule: Q01DX005 (ip), vehicle: saline with Tween-80 109 % of control and 115 % of control | dose: 25.0 mg/kg/injection, schedule: Q01DX005 (ip), vehicle: saline 122 % of control | [12] 109 % of control and 110 % of control and 112 % of control

CC1(c2ccc3ccccc3c2)C(C#N)(C#N)C1(C#N)C#N
inactive: dose: 12.5 mg/kg/injection, schedule: Q01DX009 (ip), vehicle: saline 100 % of control | dose: 25.0 mg/kg/injection, schedule: Q01DX009 (ip), vehicle: saline 102 % of control | [9] 89 % of control | [10] 103 % of control

Oc1cc(Cl)c(O)c(-c2ccccc2)c1Cl
inactive: [12] 102 % of control | [13] 102 % of control | [14] 90 % of control
